Assay results reported in ChEMBL document CHEMBL4613237, “A novel phytosterol isolated from Datura inoxia, RinoxiaB is a potential cure colon cancer agent by targeting BAX/Bcl2 pathway” (Bioorg Med Chem, 2020).
Activity calls are given as the source filed them. No cut-off for these calls is given here.

Key:
HCT-15 [1] = test: Antiproliferative activity against human HCT15 cells assessed as reduction in cell viability after 24 hrs by MTT assay; format: functional, cell-based
HCT-15 [2] = test: Antiproliferative activity against human HCT15 cells at 4 uM after 24 hrs by MTT assay relative to control; format: functional; conditions: HCT-15, 24 h
HCT-15 [3] = test: Induction of morphological changes in human HCT15 cells assessed as formation of spherical bodies at 4 to 10 uM after 24 hrs by inverted light microscopic analysis; format: functional, cell-based
HCT-15 [4] = test: Induction of morphological changes in human HCT15 cells assessed as membrane blebbing at 4 to 10 uM after 24 hrs by inverted light microscopic analysis; format: functional, cell-based
HCT-15 [5] = test: Induction of morphological changes in human HCT15 cells assessed as lack of colony forming ability at 4 to 10 uM after 24 hrs by inverted light microscopic analysis; format: functional, cell-based
HCT-15 [6] = test: Induction of morphological changes in human HCT15 cells assessed as cell shrinkage after 24 hrs by inverted light microscopic analysis; format: functional, cell-based
HCT-15 [7] = test: Induction of nuclear morphological changes in human HCT15 cells assessed as increase in propidium iodide positive cells at 4 to 10 uM after 24 hrs by PI-staining based fluorescence microscopic analysis; format: functional, cell-based
HCT-15 [8] = test: Induction of cell cycle arrest in human HCT15 cells assessed as accumulation of cells at G0/G1 phase at 4 uM after 24 hrs by propidium iodide staining based flow cytometry (reference value: 77.48%); format: functional
HCT-15 [9] = test: Induction of cell cycle arrest in human HCT15 cells assessed as accumulation of cells at S phase at 4 uM after 24 hrs by propidium iodide staining based flow cytometry (reference value: 8.73%); format: functional
HCT-15 [10] = test: Induction of cell cycle arrest in human HCT15 cells assessed as accumulation of cells at G2/M phase at 4 uM after 24 hrs by propidium iodide staining based flow cytometry (reference value: 13.77%); format: functional
HCT-15 [11] = test: Induction of cell cycle arrest in human HCT15 cells assessed as accumulation of cells at G0/G1 phase at 10 uM after 24 hrs by propidium iodide staining based flow cytometry (reference value: 77.48%); format: functional
HCT-15 [12] = test: Induction of cell cycle arrest in human HCT15 cells assessed as accumulation of cells at S phase at 10 uM after 24 hrs by propidium iodide staining based flow cytometry (reference value: 8.73%); format: functional
HCT-15 [13] = test: Induction of cell cycle arrest in human HCT15 cells assessed as accumulation of cells at G2/M phase at 10 uM after 24 hrs by propidium iodide staining based flow cytometry (reference value: 13.77%); format: functional
HCT-15 [14] = test: Induction of apoptosis in human HCT15 cells assessed as viable cells at 4 uM after 24 hrs by annexin V-FITC and propidium iodide staining based flow cytometry (reference value: 99.93%); format: functional; conditions: HCT-15, 24 h, read-out: Activity
HCT-15 [15] = test: Induction of apoptosis in human HCT15 cells assessed as early apoptotic cells at 4 uM after 24 hrs by annexin V-FITC and propidium iodide staining based flow cytometry (reference value: 0%); format: functional
HCT-15 [16] = test: Induction of apoptosis in human HCT15 cells assessed as late apoptotic cells at 4 uM after 24 hrs by annexin V-FITC and propidium iodide staining based flow cytometry (reference value: 0%); format: functional
HCT-15 [17] = test: Induction of apoptosis in human HCT15 cells assessed as necrotic cells at 4 uM after 24 hrs by annexin V-FITC and propidium iodide staining based flow cytometry (reference value: 0.07%); format: functional
HCT-15 [18] = test: Induction of apoptosis in human HCT15 cells assessed as viable cells at 10 uM after 24 hrs by annexin V-FITC and propidium iodide staining based flow cytometry (reference value: 99.93%); format: functional; conditions: HCT-15, 24 h, read-out: Activity
HCT-15 [19] = test: Induction of apoptosis in human HCT15 cells assessed as early apoptotic cells at 10 uM after 24 hrs by annexin V-FITC and propidium iodide staining based flow cytometry (reference value: 0%); format: functional
HCT-15 [20] = test: Induction of apoptosis in human HCT15 cells assessed as late apoptotic cells at 10 uM after 24 hrs by annexin V-FITC and propidium iodide staining based flow cytometry (reference value: 0%); format: functional
HCT-15 [21] = test: Induction of apoptosis in human HCT15 cells assessed as necrotic cells at 10 uM after 24 hrs by annexin V-FITC and propidium iodide staining based flow cytometry (reference value: 0.07%); format: functional
HCT-15 [22] = test: Induction of apoptosis in human HCT15 cells assessed as increase in bax protein expression at 4 to 10 uM after 24 hrs by Western blot analysis; format: functional, cell-based
HCT-15 [23] = test: Induction of apoptosis in human HCT15 cells assessed as increase in cytochrome c protein expression at 4 to 10 uM after 24 hrs by Western blot analysis; format: functional, cell-based
HCT-15 [24] = test: Induction of apoptosis in human HCT15 cells assessed as increase in caspase-9 protein expression at 4 to 10 uM after 24 hrs by Western blot analysis; format: functional, cell-based
HCT-15 [25] = test: Induction of apoptosis in human HCT15 cells assessed as increase in caspase-3 protein expression at 4 to 10 uM after 24 hrs by Western blot analysis; format: functional, cell-based
HCT-15 [26] = test: Induction of apoptosis in human HCT15 cells assessed as reduction in bcl-2 protein expression at 4 to 10 uM after 24 hrs by Western blot analysis; format: functional, cell-based
HCT-15 [27] = test: Induction of apoptosis in human HCT15 cells assessed as upregulation of p53 protein expression after 24 hrs by Western blot analysis; format: functional, cell-based
HCT-15 [28] = test: Induction of apoptosis in human HCT15 cells assessed as upregulation of p21 protein expression after 24 hrs by Western blot analysis; format: functional, cell-based
HCT-15 [29] = test: Downregulation of cyclin D1 expression in human HCT15 cells at 4 to 10 uM after 24 hrs by Western blot anlaysis; format: functional, cell-based
HCT-15 [30] = test: Downregulation of cyclin B1 expression in human HCT15 cells at 4 to 10 uM after 24 hrs by Western blot anlaysis; format: functional, cell-based
HCT-15 [31] = test: Induction of DNA damage in human HCT15 cells assessed as comet length at 4 uM by neutral comet assay (reference value: 57 pixel); format: functional
HCT-15 [32] = test: Induction of DNA damage in human HCT15 cells assessed as head length at 4 uM by neutral comet assay (reference value: 53 pixel); format: functional
HCT-15 [33] = test: Induction of DNA damage in human HCT15 cells assessed as tail length at 4 uM by neutral comet assay (reference value: 4 pixel); format: functional
HCT-15 [34] = test: Induction of DNA damage in human HCT15 cells assessed as head DNA at 4 uM by neutral comet assay relative to control (reference value: 99.27%); format: functional
HCT-15 [35] = test: Induction of DNA damage in human HCT15 cells assessed as tail DNA at 4 uM by neutral comet assay relative to control (reference value: 0.72%); format: functional
HCT-15 [36] = test: Induction of DNA damage in human HCT15 cells assessed as tail moment at 4 uM by neutral comet assay (reference value: 0.02); format: functional
HCT-15 [37] = test: Induction of DNA damage in human HCT15 cells assessed as olive tail moment at 4 uM by neutral comet assay (reference value: 0.19); format: functional
HCT-15 [38] = test: Induction of DNA damage in human HCT15 cells assessed as comet length at 10 uM by neutral comet assay (reference value: 57 pixel); format: functional
HCT-15 [39] = test: Induction of DNA damage in human HCT15 cells assessed as head length at 10 uM by neutral comet assay (reference value: 53 pixel); format: functional
HCT-15 [40] = test: Induction of DNA damage in human HCT15 cells assessed as tail length at 10 uM by neutral comet assay (reference value: 4 pixel); format: functional
HCT-15 [41] = test: Induction of DNA damage in human HCT15 cells assessed as head DNA at 10 uM by neutral comet assay relative to control (reference value: 99.27%); format: functional
HCT-15 [42] = test: Induction of DNA damage in human HCT15 cells assessed as tail DNA at 10 uM by neutral comet assay relative to control (reference value: 0.72%); format: functional
HCT-15 [43] = test: Induction of DNA damage in human HCT15 cells assessed as tail moment at 10 uM by neutral comet assay (reference value: 0.02); format: functional
HCT-15 [44] = test: Induction of DNA damage in human HCT15 cells assessed as olive tail moment at 10 uM by neutral comet assay (reference value: 0.19); format: functional

C[C@H]1C(=O)O[C@H]2C[C@]1(C)OC[C@H]2[C@H]1CC[C@H]2[C@@H]3CC=C4CC=CC(=O)[C@]4(C)[C@H]3CC[C@]12C
inhibition (HCT-15 [1]): Dose-dependent effect
IC50 (HCT-15 [1]; HCT-15, 24 h): 4 µM
inhibition at 4 µM (HCT-15 [2]): 50.7%
Activity (HCT-15 [3]): Active
Activity (HCT-15 [4]): Active
Activity (HCT-15 [5]): Active
Activity (HCT-15 [6]): Dose-dependent effect
Activity (HCT-15 [7]): Active
Activity (HCT-15 [8]): 66.97%
Activity (HCT-15 [9]): 13.34%
Activity (HCT-15 [10]): 19.67%
Activity (HCT-15 [11]): 61.24%
Activity (HCT-15 [12]): 16.46%
Activity (HCT-15 [13]): 21.57%
viability at 4 µM (HCT-15 [14]): 21.9%
Activity (HCT-15 [15]): 17.79%
Activity (HCT-15 [16]): 58.17%
Activity (HCT-15 [17]): 2.1%
viability at 10 µM (HCT-15 [18]): 14.7%
Activity (HCT-15 [19]): 19.48%
Activity (HCT-15 [20]): 63.26%
Activity (HCT-15 [21]): 2.57%
Activity (HCT-15 [22]): Active
Activity (HCT-15 [23]): Active
Activity (HCT-15 [24]): Active
Activity (HCT-15 [25]): Active
Activity (HCT-15 [26]): Active
Activity (HCT-15 [27]): Dose-dependent effect
Activity (HCT-15 [28]): Dose-dependent effect
inhibition (HCT-15 [29]): Active
inhibition (HCT-15 [30]): Active
Activity (HCT-15 [31]): 35 pixel
Activity (HCT-15 [32]): 23 pixel
Activity (HCT-15 [33]): 12 pixel
Activity (HCT-15 [34]): 54.72%
Activity (HCT-15 [35]): 45.27%
Activity (HCT-15 [36]): 5.43
Activity (HCT-15 [37]): 5.56
Activity (HCT-15 [38]): 36 pixel
Activity (HCT-15 [39]): 19 pixel
Activity (HCT-15 [40]): 17 pixel
Activity (HCT-15 [41]): 34.54%
Activity (HCT-15 [42]): 65.45%
Activity (HCT-15 [43]): 11.12
Activity (HCT-15 [44]): 8.56
